Test results from ChEMBL document CHEMBL1201862, “PubChem BioAssay data set” (2004).
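Method: 48-hour compound exposure of cells in 96-well plates, five concentrations, linear interpolation of endpoints. GI50: concentration for 50% inhibition of growth.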 Calls of active or inactive are those of the source. Cut-off read from the data, not from the text of the source: active = GI50 up to about 1.1 µM and inactive = higher.

Key:
Experiment in all cases: NCI-60 cell line screen, 48 h
XF498 = tested on: XF498
EKVX = tested on: EKVX
HCC 2998 = tested on: HCC 2998
HOP-62 = tested on: HOP-62
SF-268 = tested on: SF-268
MOLT-4 = tested on: MOLT-4
HL-60 = tested on: HL-60
UO-31 = tested on: UO-31
Malme-3M = tested on: Malme-3M
HCT-15 = tested on: HCT-15
LXFL 529 = tested on: LXFL 529
OVCAR-8 = tested on: OVCAR-8
RPMI-8226 = tested on: RPMI-8226
IGROV-1 = tested on: IGROV-1
CCRF-CEM = tested on: CCRF-CEM
ACHN = tested on: ACHN
SK-OV-3 = tested on: SK-OV-3
HOP-18 = tested on: HOP-18
COLO 205 = tested on: COLO 205
SR = tested on: SR
NCI-H23 = tested on: NCI-H23
A549 = tested on: A549
SK-MEL-28 = tested on: SK-MEL-28
SNB-19 = tested on: SNB-19
HCT-116 = tested on: HCT-116
M14 = tested on: M14
786-0 = tested on: 786-0
SK-MEL-2 = tested on: SK-MEL-2
RXF 393 = tested on: RXF 393
TK-10 = tested on: TK-10
SF-295 = tested on: SF-295
SN12C = tested on: SN12C
DMS-114 = tested on: DMS-114
HOP-92 = tested on: HOP-92
OVCAR-3 = tested on: OVCAR-3
HT-29 = tested on: HT-29
A498 = tested on: A498
DLD-1 = tested on: DLD-1
UACC-62 = tested on: UACC-62
U-251 = tested on: U-251
SF-539 = tested on: SF-539
M19-MEL = tested on: M19-MEL
SNB-75 = tested on: SNB-75
NCI-H522 = tested on: NCI-H522
SW-620 = tested on: SW-620
KM-20L2 = tested on: KM-20L2
NCI-H460 = tested on: NCI-H460
KM12 = tested on: KM12
LOX IMVI = tested on: LOX IMVI
SNB-78 = tested on: SNB-78
DMS-273 = tested on: DMS-273
UACC-257 = tested on: UACC-257
K562 = tested on: K562

CC1(C)CC(=O)C2=C(C1)S/C(=C1/SC3=C(S1)C(=O)CC(C)(C)C3)S2
GI50 (XF498): > 251 µM (inactive)
GI50 (EKVX): > 251 µM (inactive)
GI50 (HCC 2998): > 251 µM (inactive)
GI50 (HOP-62): > 251 µM (inactive)
GI50 (SF-268): > 251 µM (inactive)
GI50 (MOLT-4): > 251 µM (inactive)
GI50 (HL-60): > 251 µM (inactive)
GI50 (UO-31): > 251 µM (inactive)
GI50 (Malme-3M): > 251 µM (inactive)
GI50 (HCT-15): > 251 µM
GI50 (LXFL 529): > 251 µM (inactive)
GI50 (OVCAR-8): > 251 µM (inactive)
GI50 (RPMI-8226): > 251 µM (inactive)
GI50 (IGROV-1): > 251 µM (inactive)
GI50 (CCRF-CEM): > 251 µM (inactive)
GI50 (ACHN): > 251 µM (inactive)
GI50 (SK-OV-3): > 251 µM (inactive)
GI50 (HOP-18): > 251 µM (inactive)
GI50 (COLO 205): > 251 µM (inactive)
GI50 (SR): > 251 µM (inactive)
GI50 (NCI-H23): > 251 µM (inactive)
GI50 (A549): > 251 µM (inactive)
GI50 (SK-MEL-28): > 251 µM (inactive)
GI50 (SNB-19): > 251 µM (inactive)
GI50 (HCT-116): > 251 µM (inactive)
GI50 (M14): > 251 µM (inactive)
GI50 (786-0): > 251 µM (inactive)
GI50 (SK-MEL-2): > 251 µM (inactive)
GI50 (RXF 393): > 251 µM (inactive)
GI50 (TK-10): > 251 µM (inactive)
GI50 (SF-295): > 251 µM (inactive)
GI50 (SN12C): > 251 µM (inactive)
GI50 (DMS-114): > 251 µM (inactive)
GI50 (HOP-92): > 251 µM (inactive)
GI50 (OVCAR-3): > 251 µM (inactive)
GI50 (HT-29): > 251 µM (inactive)
GI50 (A498): > 251 µM (inactive)
GI50 (DLD-1): > 251 µM (inactive)
GI50 (UACC-62): > 251 µM (inactive)
GI50 (U-251): > 251 µM (inactive)
GI50 (SF-539): > 251 µM (inactive)
GI50 (M19-MEL): > 251 µM (inactive)
GI50 (SNB-75): > 251 µM (inactive)
GI50 (NCI-H522): > 251 µM (inactive)
GI50 (SW-620): > 251 µM (inactive)
GI50 (KM-20L2): > 251 µM (inactive)
GI50 (NCI-H460): > 251 µM (inactive)
GI50 (KM12): > 251 µM (inactive)
GI50 (LOX IMVI): > 251 µM (inactive)
GI50 (SNB-78): > 251 µM (inactive)
GI50 (DMS-273): > 251 µM (inactive)
GI50 (UACC-257): > 251 µM (inactive)
GI50 (K562): > 251 µM (inactive)
